{"source": "patent US10357468B2", "about": "“Medicaments for slowing Parkinson's disease” (BIAL—PORTELA & CA, S.A., priority 2014, dated 2019)", "key": {"[1]": {"test": "Tolerability in the Example 2 study", "conditions": "OPC 25, 50 and 75 mg QD for 11 days"}, "PD patients": {"test_system": "PD patients", "test": "1-year open label extension of placebo-controlled double-blind trials of opicapone with levodopa and AADC inhibitor (Examples 1A, 1B)", "type": "in vivo, human"}}, "data": [{"smiles": "Cc1c(Cl)c(C)[n+]([O-])c(Cl)c1-c1noc(-c2cc(O)c(O)c([N+](=O)[O-])c2)n1", "note": "[opicapone, 5-[3-(2,5-dichloro-4,6-dimethyl-1-oxy-pyridin-3-yl)-[1,2,4]oxadiazol-5-yl]-3-nitrobenzene-1,2-diol]", "values": [{"measurement": "tolerability profile", "setting": "[1]", "result": "favourable"}, {"measurement": "difference in OFF time", "setting": "PD patients; PD patients, at least 12 months post commencement of treatment with opicapone (with levodopa and AADCi), FIG. 1", "result": "approximately −2.0 hrs"}, {"measurement": "difference in ON time without troublesome dyskinesia", "setting": "PD patients; PD patients, at least 12 months post commencement of treatment with opicapone (with levodopa and AADCi), FIG. 2", "result": "approximately +1.5 hr"}, {"measurement": "progression of PD", "setting": "PD patients; patients treated with opicapone from an earlier stage compared with groups naïve to opicapone, once a day at bedtime", "result": "progressed less"}]}]}
